Key:
bamyardgrass = experiment: Test B flood test barnyardgrass; type: in vivo, Echinochloa crus-galli
Method in brief: (§1)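 Flood test on plants grown to the 2-leaf stage; treated plants kept in greenhouse twelve to sixteen days, then visually rated against controls on a 0 (no effect) to 10 (complete control) scale.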

duck salad = experiment: Test B flood test duck salad; type: in vivo, Heteranthera limosa
Method in brief: as §1

giant foxtail = experiment: Test B pre/postemergence giant foxtail; type: in vivo, Setaria faberii
Method in brief: (§2)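 Response is a visual 0-to-10 score relative to untreated plants, where 0 means no effect and 10 means complete control, taken twelve to sixteen days after application. Treatments went onto soil at planting and onto foliage of 1- to 4-leaf plants, using a surfactant-containing non-phytotoxic solvent.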

cocklebur = experiment: Test B pre/postemergence cocklebur; type: in vivo, Xanthium strumarium
Method in brief: as §2

velvetleaf = experiment: Test B pre/postemergence velvetleaf; type: in vivo, Abutilon theophrasti
Method in brief: as §2

morningglory = experiment: Test B pre/postemergence morningglory; type: in vivo, Ipomoea hederacea
Method in brief: as §2

rape = experiment: Test B pre/postemergence rape; type: in vivo, Brassica napus
Method in brief: as §2

surinam grass = experiment: Test B pre/postemergence surinam grass; type: in vivo, Brachiaria decumbens
Method in brief: as §2

corn = experiment: Test B pre/postemergence corn; type: in vivo, Zea mays
Method in brief: as §2

soybean = experiment: Test B pre/postemergence soybean; type: in vivo, Glycine max
Method in brief: as §2

blackgrass = experiment: Test B pre/postemergence blackgrass; type: in vivo, Alopecurus myosuroides
Method in brief: as §2

crabgrass = experiment: Test B pre/postemergence crabgrass; type: in vivo, Digitaria sanguinalis
Method in brief: as §2

bedstraw = experiment: Test B pre/postemergence bedstraw; type: in vivo, Galium aparine
Method in brief: as §2

smallflower flatsedge = experiment: Test B flood test smallflower flatsedge; type: in vivo, Cyperus difformis
Method in brief: as §1

wheat = experiment: Test B pre/postemergence wheat; type: in vivo, Triticum aestivum
Method in brief: as §2

wild oat = experiment: Test B pre/postemergence wild oat; type: in vivo, Avena fatua
Method in brief: as §2

[1] = Rate 31 g/ha, Pre-emergence section (flood test species), scale 0 to 10
[2] = Rate 62 g/ha, headed Pre-emergence (flood test species), scale 0 to 10 (0 no effect, 10 complete control)
[3] = Rate 125 g/ha, Pre-emergence, flood test species, scale 0 to 10 where 0 is no effect and 10 is complete control
[4] = Rate 250 g/ha, Pre-emergence, flood-test species, scale 0 to 10, 0 is no effect, 10 is complete control
[5] = Postemergence, Rate 31 g/ha, visual rating, scale 0 to 10 (0 no effect, 10 complete control)
[6] = Preemergence, Rate 31 g/ha, visual rating, scale 0 to 10 (0 no effect, 10 complete control)
[7] = Preemergence, Rate 62 g/ha, scale of 0 to 10 where 0 is no effect and 10 is complete control
[8] = Preemergence, Rate 250 g/ha, scale of 0 to 10 where 0 is no effect and 10 is complete control
[9] = Rate 62 g/ha, Postemergence, scale 0 to 10, 0 no effect, 10 complete control
[10] = Rate 125 g/ha, Postemergence, scale of 0 to 10 where 0 is no effect and 10 is complete control
[11] = Rate 250 g/ha, Postemergence, scale of 0 to 10 where 0 is no effect and 10 is complete control

COCC(C)N(C(=O)n1oc(=O)n(-c2ccccc2C)c1=O)c1ccc(F)cc1 (centres unmarked) [Compound 324]
Barnyardgrass plant response rating (bamyardgrass; [1]): 0 | Barnyardgrass plant response rating (bamyardgrass; [2]): 0 | Barnyardgrass plant response rating (bamyardgrass; [3]): 0 | Barnyardgrass plant response rating (bamyardgrass; [4]): 0 | Ducksalad plant response rating (duck salad; [1]): 0 | Ducksalad plant response rating (duck salad; [2]): 0 | Ducksalad plant response rating (duck salad; [3]): 0 | Ducksalad plant response rating (duck salad; [4]): 0 | Giant foxtail plant response rating (giant foxtail; [5]): 0 | Giant foxtail plant response rating (giant foxtail; [6]): 0 | Giant foxtail plant response rating (giant foxtail; [7]): 0 | Giant foxtail plant response rating (0 to 10 scale) (giant foxtail; Preemergence, Rate 125 g/ha): 0 | Giant foxtail plant response rating (giant foxtail; [8]): 0 | Giant foxtail plant response rating (giant foxtail; [9]): 0 | Giant foxtail plant response rating (giant foxtail; [10]): 0 | Plant response rating, Giant foxtail (giant foxtail; [11]): 0 | Cocklebur plant response rating (cocklebur; [5]): 0 | Cocklebur plant response rating (cocklebur; [6]): 0 | Cocklebur plant response rating (cocklebur; [7]): 0 | Cocklebur plant response rating (0 to 10 scale) (cocklebur; Preemergence, Rate 125 g/ha): 0 | Cocklebur plant response rating (cocklebur; [8]): 0 | Cocklebur plant response rating (cocklebur; [9]): 0 | Cocklebur plant response rating (cocklebur; [10]): 0 | Plant response rating, Cocklebur (cocklebur; [11]): 2 | Velvetleaf plant response rating (velvetleaf; [5]): 0 | Velvetleaf plant response rating (velvetleaf; [7]): 0 | Velvetleaf plant response rating (0 to 10 scale) (velvetleaf; Preemergence, Rate 125 g/ha): 0 | Velvetleaf plant response rating (velvetleaf; [8]): 0 | Velvetleaf plant response rating (velvetleaf; [9]): 0 | Velvetleaf plant response rating (velvetleaf; [10]): 0 | Plant response rating, Velvetleaf (velvetleaf; [11]): 0 | Morningglory plant response rating (morningglory; [5]): 0 | Morningglory plant response rating (morningglory; [7]): 0 | Morningglory plant response rating (0 to 10 scale) (morningglory; Preemergence, Rate 125 g/ha): 0 | Morningglory plant response rating (morningglory; [8]): 0 | Morningglory plant response rating (morningglory; [9]): 0 | Morningglory plant response rating (morningglory; [10]): 0 | Plant response rating, Morningglory (morningglory; [11]): 0 | Rape plant response rating (rape; [5]): 0 | Rape plant response rating (rape; [7]): 0 | Rape plant response rating (0 to 10 scale) (rape; Preemergence, Rate 125 g/ha): 0 | Rape plant response rating (rape; [8]): 0 | Rape plant response rating (rape; [9]): 0 | Rape plant response rating (rape; [10]): 0 | Plant response rating, Rape (rape; [11]): 0 | B. signalgrass plant response rating (surinam grass; [5]): 0 | B. signalgrass plant response rating (surinam grass; [6]): 0 | B. signalgrass plant response rating (surinam grass; [7]): 0 | B. signalgrass plant response rating (0 to 10 scale, 0 is no effect, 10 is complete control) (surinam grass; Preemergence, Rate 125 g/ha): 0 | B. signalgrass plant response rating (surinam grass; [8]): 0 | B. signalgrass plant response rating (surinam grass; [9]): 0 | B. signalgrass plant response rating (surinam grass; [10]): 0 | Plant response rating, B. signalgrass (surinam grass; [11]): 0 | Corn plant response rating (corn; [5]): 0 | Corn plant response rating (corn; [6]): 0 | Corn plant response rating (corn; [7]): 0 | Corn plant response rating (0 to 10 scale) (corn; Preemergence, Rate 125 g/ha): 0 | Corn plant response rating (corn; [8]): 0 | Corn plant response rating (corn; [9]): 0 | Corn plant response rating (corn; [10]): 0 | Plant response rating, Corn (corn; [11]): 0 | Soybean plant response rating (soybean; [5]): 0 | Soybean plant response rating (soybean; [7]): 0 | Soybean plant response rating (0 to 10 scale) (soybean; Preemergence, Rate 125 g/ha): 0 | Soybean plant response rating (soybean; [8]): 0 | Soybean plant response rating (soybean; [9]): 0 | Soybean plant response rating (soybean; [10]): 1 | Plant response rating, Soybean (soybean; [11]): 1 | Blackgrass plant response rating (blackgrass; [5]): 0 | Blackgrass plant response rating (blackgrass; [6]): 0 | Blackgrass plant response rating (blackgrass; [7]): 0 | Blackgrass plant response rating (0 to 10 scale) (blackgrass; Preemergence, Rate 125 g/ha): 0 | Blackgrass plant response rating (blackgrass; [8]): 0 | Blackgrass plant response rating (blackgrass; [9]): 0 | Blackgrass plant response rating (blackgrass; [10]): 0 | Plant response rating, Blackgrass (blackgrass; [11]): 0 | Crabgrass plant response rating (crabgrass; [5]): 0 | Crabgrass plant response rating (crabgrass; [6]): 0 | Crabgrass plant response rating (crabgrass; [7]): 0 | Crabgrass plant response rating (0 to 10 scale) (crabgrass; Preemergence, Rate 125 g/ha): 0 | Crabgrass plant response rating (crabgrass; [8]): 0 | Crabgrass plant response rating (crabgrass; [9]): 0 | Crabgrass plant response rating (crabgrass; [10]): 0 | Plant response rating, Crabgrass (crabgrass; [11]): 0 | Bedstraw plant response rating (bedstraw; [5]): 0 | Bedstraw plant response rating (bedstraw; [6]): 0 | Bedstraw plant response rating (bedstraw; [7]): 0 | Bedstraw plant response rating (0 to 10 scale) (bedstraw; Preemergence, Rate 125 g/ha): 0 | Bedstraw plant response rating (bedstraw; [8]): 0 | Bedstraw plant response rating (bedstraw; [9]): 0 | Bedstraw plant response rating (bedstraw; [10]): 0 | Plant response rating, Bedstraw (bedstraw; [11]): 0 | S. Flatsedge plant response rating (smallflower flatsedge; [1]): 0 | S. Flatsedge plant response rating (smallflower flatsedge; [2]): 0 | S. Flatsedge plant response rating (smallflower flatsedge; [3]): 0 | S. Flatsedge plant response rating (smallflower flatsedge; [4]): 0 | Wheat plant response rating (wheat; [5]): 0 | Wheat plant response rating (wheat; [7]): 0 | Wheat plant response rating (0 to 10 scale) (wheat; Preemergence, Rate 125 g/ha): 0 | Wheat plant response rating (wheat; [8]): 0 | Wheat plant response rating (wheat; [9]): 0 | Wheat plant response rating (wheat; [10]): 0 | Plant response rating, Wheat (wheat; [11]): 0 | Wild oats plant response rating (wild oat; [5]): 0 | Wild oats plant response rating (wild oat; [7]): 0 | Wild oats plant response rating (0 to 10 scale) (wild oat; Preemergence, Rate 125 g/ha): 0 | Wild oats plant response rating (wild oat; [8]): 0 | Wild oats plant response rating (wild oat; [9]): 0 | Wild oats plant response rating (wild oat; [10]): 0 | Plant response rating, Wild oats (wild oat; [11]): 0

From patent US6737383B1, “Herbicidal oxadiazolidines” (priority 1999, dated 2004)
